# Assay results as given in patent US8802597B2, “Herbicidal pyrimidines” (E I du Pont de Nemours and Company, priority 2003, dated 2014).
# Like-named read-outs stand apart in the source and are kept apart here.
# Experiments:
# Type in all cases: in vivo
# [1] = tested on: lambsquarters (Chenopodium album); assay: Test B pre/postemergence; conditions: Chenopodium album; for pest or weed control at 125 g/ha: 125 g ai/ha; for pest or weed control at 500 g/ha: 500 g ai/ha
# Method in brief: (§1)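 Under greenhouse conditions, seeded pots and young plants (1- to 4-leaf, 2 to 18 cm) were treated at the same time with test chemicals in a non-phytotoxic solvent mixture containing surfactant. Response was assessed visually after 13 to 15 days, from 0 (no effect) to 100 (complete control).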
# [2] = tested on: morningglory (Ipomoea coccinea); assay: Test B pre/postemergence; conditions: Ipomoea; for pest or weed control at 125 g/ha: 125 g ai/ha; for pest or weed control at 500 g/ha: 500 g ai/ha
# Method in brief: as §1
# corn (Zea mays) = assay: Test B pre/postemergence; conditions: Zea mays
# Method in brief: as §1
# [3] = tested on: barnyardgrass (Echinochloa crus-galli); assay: Test B pre/postemergence; conditions: Echinochloa crus-galli; for pest or weed control at 125 g/ha: 125 g ai/ha; for pest or weed control at 500 g/ha: 500 g ai/ha
# Method in brief: as §1
# [4] = tested on: pigweed (Amaranthus retroflexus); assay: Test B pre/postemergence; conditions: Amaranthus retroflexus; for pest or weed control at 125 g/ha: 125 g ai/ha; for pest or weed control at 500 g/ha: 500 g ai/ha
# Method in brief: as §1
# [5] = tested on: cocklebur (Xanthium strumarium); assay: Test B pre/postemergence; conditions: Xanthium strumarium; for pest or weed control at 125 g/ha: 125 g ai/ha; for pest or weed control at 500 g/ha: 500 g ai/ha
# Method in brief: as §1
# [6] = tested on: crabgrass (Digitaria sanguinalis); assay: Test B pre/postemergence; conditions: Digitaria sanguinalis; for pest or weed control at 125 g/ha: 125 g ai/ha; for pest or weed control at 500 g/ha: 500 g ai/ha
# Method in brief: as §1
# [7] = tested on: Surinam grass (Brachiaria decumbens); assay: Test B pre/postemergence; conditions: Urochloa decumbens; for pest or weed control at 125 g/ha: 125 g ai/ha; for pest or weed control at 500 g/ha: 500 g ai/ha
# Method in brief: as §1
# [8] = tested on: giant foxtail (Setaria faberii); assay: Test B pre/postemergence; conditions: Setaria faberi; for pest or weed control at 125 g/ha: 125 g ai/ha; for pest or weed control at 500 g/ha: 500 g ai/ha
# Method in brief: as §1
# [9] = tested on: wheat (Triticum aestivum); assay: Test B pre/postemergence; conditions: Triticum aestivum; for plant injury at 125 g/ha: 125 g ai/ha; for plant injury at 500 g/ha: 500 g ai/ha
# Method in brief: as §1
# [10] = tested on: velvetleaf (Abutilon theophrasti); assay: Test B pre/postemergence; conditions: Abutilon theophrasti; for pest or weed control at 125 g/ha: 125 g ai/ha; for pest or weed control at 500 g/ha: 500 g ai/ha
# Method in brief: as §1
# [11] = tested on: duck salad (Heteranthera limosa); assay: Test B flooded paddy test; conditions: Heteranthera limosa, Flood, 1000 g ai/ha; scale 0 to 100; read-out: Plant response rating, Ducksalad
# Method in brief: (§2)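 Plants were grown to the 2-leaf stage before treatment, then kept in a greenhouse for 13 to 15 days. Injury was rated visually against untreated controls on a 0 to 100 scale, where 0 is no effect and 100 is complete control.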
# [12] = tested on: barnyardgrass (Echinochloa crus-galli); assay: Test B flooded paddy test; conditions: Echinochloa crus-galli, Flood, 1000 g ai/ha; scale 0 (no effect) to 100 (complete control); read-out: Plant response rating, Barnyardgrass
# Method in brief: as §2
# rice (Oryza sativa) = assay: Test B flooded paddy test; conditions: Oryza sativa, Flood, 1000 g ai/ha; scale 0 to 100; read-out: Plant response rating, Rice
# Method in brief: as §2
# [13] = tested on: umbrella sedge (Cyperus difformis); assay: Test B flooded paddy test; conditions: Cyperus difformis, Flood, 1000 g ai/ha; scale 0 to 100; read-out: Plant response rating, Sedge, Umbrella
# Method in brief: as §2
# [14] = tested on: blackgrass (Alopecurus myosuroides); assay: Test B postemergence; conditions: Alopecurus myosuroides, post-emergence
# Method in brief: as §1
# wild oat (Avena fatua) = assay: Test B postemergence; conditions: Avena fatua, post-emergence
# Method in brief: as §1
smiles,measurement,setting,value
CCOC(=O)c1nc(C2CC2)nc(N)c1F [Compound 30],pest or weed control at 125 g/ha,"[1]; post-emergence, Postemergence, scale 0 to 100 (0 no effect, 100 complete control), read-out: Lambsquarters plant response rating",90%
same,pest or weed control at 500 g/ha,"[1]; post-emergence, Postemergence, scale 0 to 100, read-out: Plant response rating, Lambsquarters",100%
same,pest or weed control at 125 g/ha,"[1]; pre-emergence, Preemergence, scale 0 to 100 (0 no effect, 100 complete control), read-out: Plant response rating, Lambsquarters",80%
same,pest or weed control at 500 g/ha,"[1]; pre-emergence, Preemergence, scale 0 to 100 (0 no effect, 100 complete control), read-out: Lambsquarters plant response rating",90%
same,pest or weed control at 125 g/ha,"[2]; post-emergence, Postemergence, scale 0 to 100 (0 no effect, 100 complete control), read-out: Morningglory plant response rating",90%
same,pest or weed control at 500 g/ha,"[2]; post-emergence, Postemergence, scale 0 to 100, read-out: Plant response rating, Morningglory",100%
same,pest or weed control at 125 g/ha,"[2]; pre-emergence, Preemergence, scale 0 to 100 (0 no effect, 100 complete control), read-out: Plant response rating, Morningglory",90%
same,pest or weed control at 500 g/ha,"[2]; pre-emergence, Preemergence, scale 0 to 100 (0 no effect, 100 complete control), read-out: Morningglory plant response rating",100%
same,plant injury at 125 g/ha,"corn (Zea mays); post-emergence, Postemergence, 125 g ai/ha, scale 0 to 100 (0 no effect, 100 complete control), read-out: Corn plant response rating",0%
same,"Corn plant response rating (crop injury, 0 = no effect, 100 = complete kill) at 500 g/ha","corn (Zea mays); post-emergence, Postemergence, 500 g ai/ha, scale 0 to 100",30%
same,"Corn plant response rating (crop injury, 0 = no effect, 100 = complete kill) at 125 g/ha","corn (Zea mays); pre-emergence, Preemergence, 125 g ai/ha, scale 0 to 100 (0 no effect, 100 complete control)",10%
same,plant injury at 500 g/ha,"corn (Zea mays); pre-emergence, Preemergence, 500 g ai/ha, scale 0 to 100 (0 no effect, 100 complete control), read-out: Corn plant response rating",80%
same,pest or weed control at 125 g/ha,"[3]; post-emergence, Postemergence, scale 0 to 100 (0 no effect, 100 complete control), read-out: Barnyardgrass plant response rating",0%
same,pest or weed control at 500 g/ha,"[3]; post-emergence, Postemergence, scale 0 to 100, read-out: Plant response rating, Barnyardgrass",80%
same,pest or weed control at 125 g/ha,"[3]; pre-emergence, Preemergence, scale 0 to 100 (0 no effect, 100 complete control), read-out: Plant response rating, Barnyardgrass",10%
same,pest or weed control at 500 g/ha,"[3]; pre-emergence, Preemergence, scale 0 to 100 (0 no effect, 100 complete control), read-out: Barnyardgrass plant response rating",40%
same,pest or weed control at 125 g/ha,"[4]; post-emergence, Postemergence, scale 0 to 100 (0 no effect, 100 complete control), read-out: Pigweed plant response rating",90%
same,pest or weed control at 500 g/ha,"[4]; post-emergence, Postemergence, scale 0 to 100, read-out: Plant response rating, Pigweed",100%
same,pest or weed control at 125 g/ha,"[4]; pre-emergence, Preemergence, scale 0 to 100 (0 no effect, 100 complete control), read-out: Plant response rating, Pigweed",50%
same,pest or weed control at 500 g/ha,"[4]; pre-emergence, Preemergence, scale 0 to 100 (0 no effect, 100 complete control), read-out: Pigweed plant response rating",90%
same,pest or weed control at 125 g/ha,"[5]; post-emergence, Postemergence, scale 0 to 100 (0 no effect, 100 complete control), read-out: Cocklebur plant response rating",100%
same,pest or weed control at 500 g/ha,"[5]; post-emergence, Postemergence, scale 0 to 100, read-out: Plant response rating, Cocklebur",100%
same,pest or weed control at 125 g/ha,"[5]; pre-emergence, Preemergence, scale 0 to 100 (0 no effect, 100 complete control), read-out: Plant response rating, Cocklebur",60%
same,pest or weed control at 500 g/ha,"[5]; pre-emergence, Preemergence, scale 0 to 100 (0 no effect, 100 complete control), read-out: Cocklebur plant response rating",100%
same,pest or weed control at 125 g/ha,"[6]; post-emergence, Postemergence, scale 0 to 100 (0 no effect, 100 complete control), read-out: Crabgrass plant response rating",30%
same,pest or weed control at 500 g/ha,"[6]; post-emergence, Postemergence, scale 0 to 100, read-out: Plant response rating, Crabgrass",90%
same,pest or weed control at 125 g/ha,"[6]; pre-emergence, Preemergence, scale 0 to 100 (0 no effect, 100 complete control), read-out: Plant response rating, Crabgrass",50%
same,pest or weed control at 500 g/ha,"[6]; pre-emergence, Preemergence, scale 0 to 100 (0 no effect, 100 complete control), read-out: Crabgrass plant response rating",90%
same,pest or weed control at 125 g/ha,"[7]; post-emergence, Postemergence, scale 0 to 100 (0 no effect, 100 complete control), read-out: Surinam Grass plant response rating",10%
same,pest or weed control at 500 g/ha,"[7]; post-emergence, Postemergence, scale 0 to 100, read-out: Plant response rating, Surinam Grass",80%
same,pest or weed control at 125 g/ha,"[7]; pre-emergence, Preemergence, scale 0 to 100 (0 no effect, 100 complete control), read-out: Plant response rating, Surinam Grass",0%
same,pest or weed control at 500 g/ha,"[7]; pre-emergence, Preemergence, scale 0 to 100 (0 no effect, 100 complete control), read-out: Surinam Grass plant response rating",80%
same,pest or weed control at 125 g/ha,"[8]; post-emergence, Postemergence, scale 0 to 100 (0 no effect, 100 complete control), read-out: Foxtail, Giant plant response rating",0%
same,pest or weed control at 500 g/ha,"[8]; post-emergence, Postemergence, scale 0 to 100, read-out: Plant response rating, Foxtail, Giant",90%
same,pest or weed control at 125 g/ha,"[8]; pre-emergence, Preemergence, scale 0 to 100 (0 no effect, 100 complete control), read-out: Plant response rating, Foxtail, Giant",10%
same,pest or weed control at 500 g/ha,"[8]; pre-emergence, Preemergence, scale 0 to 100 (0 no effect, 100 complete control), read-out: Foxtail, Giant plant response rating",80%
same,plant injury at 125 g/ha,"[9]; post-emergence, Postemergence, scale 0 to 100 (0 no effect, 100 complete control), read-out: Wheat plant response rating",50%
same,plant injury at 500 g/ha,"[9]; post-emergence, Postemergence, scale 0 to 100, read-out: Plant response rating, Wheat",60%
same,plant injury at 125 g/ha,"[9]; pre-emergence, Preemergence, scale 0 to 100 (0 no effect, 100 complete control), read-out: Plant response rating, Wheat",30%
same,plant injury at 500 g/ha,"[9]; pre-emergence, Preemergence, scale 0 to 100 (0 no effect, 100 complete control), read-out: Wheat plant response rating",60%
same,pest or weed control at 125 g/ha,"[10]; post-emergence, Postemergence, scale 0 to 100 (0 no effect, 100 complete control), read-out: Velvetleaf plant response rating",50%
same,pest or weed control at 500 g/ha,"[10]; post-emergence, Postemergence, scale 0 to 100, read-out: Plant response rating, Velvetleaf",90%
same,pest or weed control at 125 g/ha,"[10]; pre-emergence, Preemergence, scale 0 to 100 (0 no effect, 100 complete control), read-out: Plant response rating, Velvetleaf",10%
same,pest or weed control at 500 g/ha,"[10]; pre-emergence, Preemergence, scale 0 to 100 (0 no effect, 100 complete control), read-out: Velvetleaf plant response rating",80%
same,pest or weed control at 1000 g/ha,[11],0%
same,pest or weed control at 1000 g/ha,[12],0%
same,plant injury at 1000 g/ha,rice (Oryza sativa),0%
same,pest or weed control at 1000 g/ha,[13],0%
same,pest or weed control at 125 g/ha,"[14]; 125 g ai/ha, scale 0 to 100 (0 no effect, 100 complete control), read-out: Blackgrass plant response rating",60%
same,pest or weed control at 500 g/ha,"[14]; 500 g ai/ha, scale 0 to 100, read-out: Plant response rating, Blackgrass",70%
same,pest or weed control at 125 g/ha,"wild oat (Avena fatua); 125 g ai/ha, scale 0 to 100 (0 no effect, 100 complete control), read-out: Oat, Wild plant response rating",60%
same,pest or weed control at 500 g/ha,"wild oat (Avena fatua); 500 g ai/ha, scale 0 to 100, read-out: Plant response rating, Oat, Wild",70%
